In US7601355B2, “Compositions and methods for altering immune function” (Northwestern University, priority 2005, dated 2009):
Entries after “also recorded” stand apart in the source; their conditions may differ.

Experiments:
DO11.10 T cells = test: in vitro screen: 3H-thymidine proliferation of DO11.10 T cells co-cultured with OVA323-339-pulsed dendritic cells (non-specific toxicity screen); format: cell-based, mice; conditions: 5 mM and 0.1 μM; 16:1 and 64:1 ratio T:DC co-cultures
Experimental: The initial biological screen for the selected small molecule compounds was based in functional characteristics of enhancement of Th1 function and secretion of Th1 cytokines (e.g., Interferon-γ (IFN-γ)). In this process, dendritic cells (DC) were obtained by GM-CSF stimulation of bone marrow stem cells for 6 days, pulsed for 18 hours with OVA323-339 peptide to load specific antigen on these antigen presenting cells and then purified using CD11c magnetic bead separation. This population of cells is routinely >98% CD11c positive, as determined by flow cytometry. Transgenic T cells with specificity for the ovalbumin 323-339 epitope (OVA323-339) were obtained from naïve spleens of DO11.10 transgenic mice. The splenic cells were harvested and magnetic beads used to isolate the CD4 T cell population. This latter population of cells is routinely >95% CD4^+. The cells were then co-cultured in round-bottomed 96 well tissue culture plates, at varying ratios, maintaining 2×10^5 CD4^+ T cells in each well, and varying the number of dendritic cells added (See FIG. 2). […]
An initial screen was carried out with 18 compounds, using the in vitro screening process established in Example 2, above. Initially, all 18 compounds were evaluated for toxicity at 5 mM and 0.1 μM, by evaluation of proliferation of 16:1 and 64:1 ratio T:DC co-cultures. […]

[1] = system: co-cultures of DC-T cells; test: in vitro screen: IFN-γ secretion in DO11.10 T cell / OVA323-339-peptide loaded dendritic cell co-cultures; format: cell-based, mice; conditions: for IFN-γ enhancement at the highest concentration: 64:1 ratio, 1000 ng/ml; for IFN-γ secretion compared to control samples: initial screen, 16:1 and 64:1 T:DC co-cultures
Experimental: The initial biological screen for the selected small molecule compounds was based in functional characteristics of enhancement of Th1 function and secretion of Th1 cytokines (e.g., Interferon-γ (IFN-γ)). In this process, dendritic cells (DC) were obtained by GM-CSF stimulation of bone marrow stem cells for 6 days, pulsed for 18 hours with OVA323-339 peptide to load specific antigen on these antigen presenting cells and then purified using CD11c magnetic bead separation. This population of cells is routinely >98% CD11c positive, as determined by flow cytometry. Transgenic T cells with specificity for the ovalbumin 323-339 epitope (OVA323-339) were obtained from naïve spleens of DO11.10 transgenic mice. The splenic cells were harvested and magnetic beads used to isolate the CD4 T cell population. This latter population of cells is routinely >95% CD4^+. The cells were then co-cultured in round-bottomed 96 well tissue culture plates, at varying ratios, maintaining 2×10^5 CD4^+ T cells in each well, and varying the number of dendritic cells added (See FIG. 2).
The in vitro screen for functional activity was based on two parameters. The first parameter, ^3H-thymidine incorporation measuring proliferation of OVA323-339-peptide-specific DO11.10 T cells cultured in the presence of OVA323-339-peptide pulsed GM-CSF derived dendritic cells, should not be affected by CD154-CD40 interactions, and thus was used as a screen for non-specific toxicity of the compounds to immune cell co-cultures. The second parameter, which is controlled in the DO11.10 T cell —OVA323-339-peptide loaded dendritic cell co-cultures by CD40 ligation, is that of Interferon-γ secretion by the activated T cells.
Thus, it was hypothesized that if it was possible to enhance immune function by stabilization of CD154-CD40 ligand pair interactions through prolonged stability of CD154 homotrimers, then IFN-γ production should be increased by addition of the small molecule compounds.
An initial screen was carried out with 18 compounds, using the in vitro screening process established in Example 2, above. Initially, all 18 compounds were evaluated for toxicity at 5 mM and 0.1 μM, by evaluation of proliferation of 16:1 and 64:1 ratio T:DC co-cultures. Second, expression of IFN-γ was observed and compared to that of control samples. Of the initial 18 small molecule compounds, 5 compounds were eliminated at this early stage because they inhibited T cell proliferation and were toxic to the cells in culture. […] These two compounds, JFPH and JFPB, were selected for further study, as described below.
Small molecules in DMSO vehicle were added at various dilutions to co-cultures of DC-T cells and after four days supernatants characterized for the production of IFNγ. […]

[2] = system: experimental autoimmune encephalomyelitis (EAE); test: mouse model of experimental autoimmune encephalomyelitis (EAE), PLP139-151 peptide in CFA; format: in vivo
Experimental: Experiments were conducted to confirm that the small molecules could stabilize and therefore enhance Th1 effector function in vivo. Efficacy was tested in a mouse model of experimental autoimmune encephalomyelitis (EAE), a model of Multiple Sclerosis (MS) (See, e.g., Karlsson et al., The Journal of Immunology, 2003, 170: 1019-1026).
EAE is dependent upon CD154-CD40 interactions in the central nervous system (CNS). Initial experiments were carried out to determine the effects of these small molecules on clinical disease severity in an optimal process of induction of EAE. The compounds should not modify the severity of clinical disease over that of the vehicle control treated animals, but enhancement and prolonged Th1 responses peripherally may be observed. Second, experiments were conducted to address whether the severity and/or incidence of EAE disease could be enhanced by the small molecule therapy in mice immunized with suboptimal myelin antigenic peptide, such that the small molecules might enhance in vivo functional activity of the antigen specific Th1 cells induced in these mice, that normally would have low incidence and severity of clinical disease.
Mice were immunized with PLP139-151-peptide in CFA and treated on days 9 and 10 with 100 nmol JFPH in olive oil or vehicle alone. Clinical disease was then evaluated. Clinical severity was assessed on a 0 to 5 scale as follows: grade 1, limp tail; grade 2, limp tail and hind limb weakness (waddling gait); grade 3, partial hind limb paralysis; grade 4, complete hind limb paralysis; and grade 5, moribund. The data are plotted as the daily mean clinical score for all animals in a particular treatment group, and mean day of onset for each mouse was determined and plotted (See, FIG. 5(b)) as a box and whisker plot. When optimal EAE induction was carried out using 50 μg doses of PLP139-151 peptide, disease severity was not affected by treatment with 100 nmol JFPH on days 9 and 10 post-immunization. However, the mean day of disease onset was earlier in the JFPH treated mice compared to vehicle controls (p<0.0001) as determined by a Wilcoxon Sign-Rank test.
In experiments where suboptimal induction of EAE was induced with 25 μg doses of PLP139-151 peptide, the incidence of disease was low for vehicle treated mice (60%) compared to that of JFPH treated mice (100%). Briefly, mice were immunized with 25 μg PLP139-151-peptide in CFA and treated on days 0, 1, 8 and 9 with 100 nmol JFPH in olive oil or vehicle of olive oil alone (FIG. 6, treatment days marked by downward triangles). Clinical disease was evaluated and the cumulative mean clinical scores determined by addition of scores cumulatively with each subsequent day of evaluation (FIG. 6, right panel). The average maximum score for vehicle treated mice was 1.2 (due in part to one individual mouse) versus 1.8 for JFPH treated mice, and in both mean day of onset and mean day of peak disease severity, the JFPH treated mice reached these time points an average of 3 days earlier than that of vehicle treated mice.

[3] = system: syngeneic renal cell carcinoma (RCC) cells; test: sub-cutaneous renal cell carcinoma tumor model; format: in vivo, Balb/c mice; conditions: various concentrations, i.p. in olive oil 3x/week for 3 weeks from day 3
Experimental: (§1) In order to evaluate the efficacy of JFPH in a murine tumor model, Balb/c mice were first injected with syngeneic renal cell carcinoma (RCC) cells. The injections were delivered either sub-cutaneously or orthotopically under the kidney capsule (intra-renal). JFPH drug was diluted in olive oil to a desired concentration. Mice were injected with JFPH in olive oil intra-peritoneally 3×/week for a total of 3 weeks, beginning on day 3 post-tumor cell injection. As a vehicle control, mice were administered with only olive oil (no JFPH). For the sub-cutaneous tumor model, primary tumors were measured with calipers 3×/week and the tumor area was calculated. For the intra-renal tumor model, mice were euthanized on day 21 post tumor-cell injection and the lungs were harvested and placed in fixative. The number of lung metastases were then counted under a dissecting microscope.

[4] = system: syngeneic renal cell carcinoma (RCC) cells; test: intra-renal renal cell carcinoma tumor model, lung metastases; format: in vivo, Balb/c mice; conditions: 500 nmoles i.p. in olive oil 3x/week for 3 weeks
Experimental: as §1

[5] = suboptimal EAE induction, 25 μg PLP139-151
[6] = suboptimal EAE induction, 25 μg PLP139-151, 100 nmol days 0, 1, 8 and 9

Structure (SMILES)	T cell proliferation (DO11.10 T cells)	IFN-γ enhancement at the highest concentration [1]	IFN-γ secretion compared to control samples [1]	disease onset ([2]; EAE induced under suboptimal conditions)	mean day of onset ([2]; optimal EAE induction, 50 μg PLP139-151, 100 nmol days 9 and 10, ± standard deviation)	disease severity (clinical score 0 to 5) ([2]; optimal EAE induction, 50 μg PLP139-151, 100 nmol in olive oil days 9 and 10)	disease onset compared to vehicle controls ([2]; optimal EAE induction, 100 nmol days 9 and 10)	disease course longer than vehicle control [2, 5]	mean day of onset, earlier than vehicle treated mice [2, 5]	mean day of peak disease severity, earlier than vehicle treated mice [2, 5]	average maximum score [2, 6]	incidence of disease [2, 6]	mean day of remission versus vehicle ([2]; suboptimal EAE induction, remission = reduction of one full score for two days)	sub-cutaneous renal cancer tumor growth (tumor area) versus control mice [3]	renal cancer metastasis (number of lung metastases, day 21) versus control mice [4]
CCOC(=O)NC(=O)c1cn(CCNc2ncc(C(F)(F)F)cc2Cl)c(=O)[nH]c1=O [JFPB, ethyl N-[[1-(2-[[3-chloro-5-(trifluoromethyl)-2-pyridinyl]amino]ethyl)-2,4-dioxo-1,2,3,4-tetrahydro-5-pyrimidinyl]carbonyl]carbamate]	no effect	reduced IFN-γ enhancement	consistently enhanced IFN-γ secretion	–	–	–	–	–	–	–	–	–	–	–	–
FC(F)(F)c1cc(N2CCCCCCC2)c2c(Cl)cc(Cl)cc2n1 [JFPH, 4-azocan-1-YL-5,7-dichloro-2-(trifluoromethyl)quinoline]	no effect	enhancement was observed	consistently enhanced IFN-γ secretion	accelerated disease onset	15.47 ± 1.68 days	not affected	accelerated disease onset; also recorded: earlier	3 days	3 days	3 days	1.8	100%	no difference	delays sub-cutaneous growth of renal cancer; also recorded: delayed renal cancer tumor growth	reduces renal cancer metastasis; also recorded: significant reduction of renal cancer metastasis
